The source of these data is patent publication US20220313698A1, “MODULATORS OF CYSTIC FIBROSIS TRANSMEMBRANE CONDUCTANCE REGULATOR” (Vertex Pharmaceuticals Incorporated, priority 2019, published 2022).

Some results are limits rather than exact numbers.

The assay has as its target CFTR-mediated chloride transport (Homo sapiens, UniProt P13569). In words: Corrector Assay A - membrane potential dye assay (enteroid cells). To be noted: for Corrector Assay A % activity: % of chloride transport of triple combination control (1 μM (14S)-dispiro macrocycle + 3 μM tezacaftor + 300 nM ivacaftor); for EC50: read-out: Corrector Assay A EC50, human intestinal enteroid cells, 18-24 h incubation, acute 10 μM forskolin + 300 nM ivacaftor.

Protocol: Base medium (ADF+++) consisted of Advanced DMEM/Ham's F12, 2 mM Glutamax, 10 mM HEPES, 1 μg/ml penicillin/streptomycin.
Intestinal enteroid maintenance medium (IEMM) consisted of ADF+++, 1×B27 supplement, 1×N2 supplement, 1.25 mM N-acetyl cysteine, 10 mM Nicotinamide, 50 ng/mL hEGF, 10 nM Gastrin, 1 μg/mL hR-spondin-1, 100 ng/mL hNoggin, TGF-b type 1 inhibitor A-83-01, 100 μg/mL Primocin, 10 μM P38 MAPK inhibitor SB202190.
Bath 1 Buffer consisted of 1 mM MgCl2, 160 mM NaCl, 4.5 mM KCl, 10 mM HEPES, 10 mM Glucose, 2 mM CaCl2).
Chloride Free Buffer consisted of 1 mM Magnesium Gluconate, 2 mM Calcium Gluconate, 4.5 mM Potassium Gluconate, 160 mM Sodium Gluconate, 10 mM HEPES, 10 mM Glucose.
Bath 1 Dye Solution consisted of Bath 1 Buffer, 0.04% Pluronic F127, 20 μM Methyl Oxonol, 30 μM CaCCinh-A01, 30 μM Chicago Sky Blue.
Chloride Free Dye Solution consisted of Chloride Free Buffer, 0.04% Pluronic F127, 20 μM Methyl Oxonol, 30 μM CaCCinh-A01, 30 μM Chicago Sky Blue.
Chloride Free Dye Stimulation Solution consisted of Chloride Free Dye Solution, 10 μM forskolin, 100 μM IBMX, and 300 nM Ivacaftor.
Cells were recovered in cell recovery solution, collected by centrifugation at 650 rpm for 5 min at 4° C., resuspended in TryPLE and incubated for 5 min at 37° C. Cells were then collected by centrifugation at 650 rpm for 5 min at 4° C. and resuspended in IEMM containing 10 μM ROCK inhibitor (RI). The cell suspension was passed through a 40 μm cell strainer and resuspended at 1×10^6 cells/mL in IEMM containing 10 μM RI. Cells were seeded at 5000 cells/well into multi-well plates and incubated for overnight at 37° C., 95% humidity and 5% CO2 prior to assay.
Briefly, cells were washed 5 times in Bath 1 Buffer. Bath 1 Dye Solution was added and the cells were incubated for 25 min at room temperature. Following dye incubation, cells were washed 3 times in Chloride Free Dye Solution. Chloride transport was initiated by addition of Chloride Free Dye Stimulation Solution and the fluorescence signal was read for 15 min. The CFTR-mediated chloride transport for each condition was determined from the AUC of the fluorescence response to acute forskolin and 300 nM N-[2,4-bis(1,1-dimethylethyl)-5-hydroxyphenyl]-1,4-dihydro-4-oxoquinoline-3-carboxamide stimulation. Chloride transport was then expressed as a percentage of the chloride transport following treatment with 1 μM (14S)-8-[3-(2-{Dispiro[2.0.2.1]heptan-7-yl}ethoxy)-1H-pyrazol-1-yl]-12,12-dimethyl-2λ^6-thia-3,9,11,18,23-pentaazatetracyclo[17.3.1.111,14.05,10]tetracosa-1(22),5,7,9,19(23),20-hexaene-2,2,4-trione, 3 μM (R)-1-(2,2-difluorobenzo[d][1,3]dioxol-5-yl)-N-(1-(2,3-dihydroxypropyl)-6-fluoro-2-(1-hydroxy-2-methylpropan-2-yl)-1H-indol-5-yl)cyclopropanecarboxamide and 300 nM acute N-[2,4-bis(1,1-dimethylethyl)-5-hydroxyphenyl]-1,4-dihydro-4-oxoquinoline-3-carboxamide triple combination control (% Activity).

For orientation: EC50 means the concentration that produces a half-maximal response. `CC(C)(C)c1ccnc([C@H]2CC[C@@H]3CN(c4nc(-c5cccc(F)n5)ccc4C(=O)NS(=O)(=O)c4cccc(n4)N2)C(C)(C)C3)c1` [Compound 307, (14S,17R)-17-(4-tert-butylpyridin-2-yl)-8-(6-fluoropyridin-2-yl)-12,12-dimethyl-2λ^6-thia-3,9,11,18,23-pentaazatetracyclo[17.3.1.111,14.05,10]tetracosa-1(22),5,7,9,19(23),20-hexaene-2,2,4-trione]: the “Corrector Assay A % activity” value is reported as “+++ (+++ is >60%)” and the EC50 was under 1 µM.
The corresponding values for `CC1(C)C[C@@H]2CC[C@H](c3cccc(C(F)(F)F)n3)Nc3cccc(n3)S(=O)(=O)NC(=O)c3ccc(-c4cccc(F)n4)nc3N1C2` [Compound 308, (14S,17R)-8-(6-fluoropyridin-2-yl)-12,12-dimethyl-17-[6-(trifluoromethyl)pyridin-2-yl]-2λ^6-thia-3,9,11,18,23-pentaazatetracyclo[17.3.1.111,14.05,10]tetracosa-1(22),5,7,9,19(23),20-hexaene-2,2,4-trione] are “++ (++ is 30-60%)” and under 1 µM.
The corresponding values for `CC(C)(C)CCOc1cccc(-c2ccc3c(n2)N2C[C@@H](CC[C@H](c4ccccn4)Nc4cccc(n4)S(=O)(=O)NC3=O)CC2(C)C)n1` [Compound 310] are “++ (++ is 30-60%)” and under 1 µM.
The corresponding values for `CC1(C)C[C@@H]2CC[C@H](c3ccccn3)Nc3cccc(n3)S(=O)(=O)NC(=O)c3ccc(-c4cccc(OCCC5CC5)n4)nc3N1C2` [Compound 311] are “+++ (+++ is >60%)” and under 1 µM.
On to `CC(C)(C)COc1cccc(-c2ccc3c(n2)N2C[C@@H](CC[C@H](c4ccccn4)Nc4cccc(n4)S(=O)(=O)NC3=O)CC2(C)C)n1` [Compound 312], for which the “Corrector Assay A % activity” value is listed as “+++ (+++ is >60%)” and the concentration giving a half-maximal response (EC50) is under 1 µM.
The corresponding values for `CC1(C)C[C@@H]2CC[C@H](c3ccccn3)Nc3cccc(n3)S(=O)(=O)NC(=O)c3ccc(-c4cccc(OCC5CCC5)n4)nc3N1C2` [Compound 313, (14S,17R)-8-[6-(cyclobutylmethoxy)pyridin-2-yl]-12,12-dimethyl-17-(pyridin-2-yl)-2λ^6-thia-3,9,11,18,23-pentaazatetracyclo[17.3.1.111,14.05,10]tetracosa-1(22),5,7,9,19(23),20-hexaene-2,2,4-trione] are “+++ (+++ is >60%)” and under 1 µM.
The corresponding values for `CC1(C)C[C@@H]2CC[C@H](c3ccccn3)Nc3cccc(n3)S(=O)(=O)NC(=O)c3ccc(-c4cccc(OCC5CC5)n4)nc3N1C2` [Compound 314] are “+++ (+++ is >60%)” and under 1 µM.
The corresponding values for `CC(C)COc1cccc(-c2ccc3c(n2)N2C[C@@H](CC[C@H](c4ccccn4)Nc4cccc(n4)S(=O)(=O)NC3=O)CC2(C)C)n1` [Compound 315] are “+++ (+++ is >60%)” and under 1 µM.
For the compound `CCOc1cccc(-c2ccc3c(n2)N2C[C@@H](CC[C@H](c4ccccn4)Nc4cccc(n4)S(=O)(=O)NC3=O)CC2(C)C)n1` [Compound 316], the “Corrector Assay A % activity” value is “+++ (+++ is >60%)” and the EC50 was under 1 µM.
The corresponding values for `CCOc1cccc(-c2ccc3c(n2)N2C[C@@H](CC[C@@H](c4ccccn4)Nc4cccc(n4)S(=O)(=O)NC3=O)CC2(C)C)n1` [Compound 317] are “++ (++ is 30-60%)” and under 1 µM.
The corresponding values for `CC1(C)C[C@@H]2CC[C@H](c3ccccn3)Nc3cccc(n3)S(=O)(=O)NC(=O)c3ccc(-c4cccc(F)n4)nc3N1C2` [Compound 318, (14S,17R)-8-(6-fluoropyridin-2-yl)-12,12-dimethyl-17-(pyridin-2-yl)-2λ^6-thia-3,9,11,18,23-pentaazatetracyclo[17.3.1.111,14.05,10]tetracosa-1(22),5,7,9,19(23),20-hexaene-2,2,4-trione] are “+++ (+++ is >60%)” and under 1 µM.
Turning to `CC(C)(C)CCOc1ccn(-c2ccc3c(n2)N2C[C@@H](CC[C@H](c4ccccn4)Nc4cccc(n4)S(=O)(=O)NC3=O)CC2(C)C)n1` [Compound 320, (14S,17R)-8-[3-(3,3-dimethylbutoxy)-1H-pyrazol-1-yl]-12,12-dimethyl-17-(pyridin-2-yl)-2λ^6-thia-3,9,11,18,23-pentaazatetracyclo[17.3.1.111,14.05,10]tetracosa-1(22),5,7,9,19(23),20-hexaene-2,2,4-trione], the “Corrector Assay A % activity” value was “+++ (+++ is >60%)” and the EC50 is under 1 µM.
The corresponding values for `CC1(COc2ccn(-c3ccc4c(n3)N3C[C@@H](CC[C@H](c5ccccn5)Nc5cccc(n5)S(=O)(=O)NC4=O)CC3(C)C)n2)CC1` [Compound 321] are “+++ (+++ is >60%)” and under 1 µM.
The corresponding values for `CC(C)(C)COc1ccn(-c2ccc3c(n2)N2C[C@@H](CC[C@H](c4ccccn4)Nc4cccc(n4)S(=O)(=O)NC3=O)CC2(C)C)n1` [Compound 322] are “++ (++ is 30-60%)” and under 1 µM.
The corresponding values for `CC(C)c1cnn(-c2ccc3c(n2)N2C[C@@H](CC[C@H](c4ccccn4)Nc4cccc(n4)S(=O)(=O)NC3=O)CC2(C)C)c1` [Compound 323] are “++ (++ is 30-60%)” and under 1 µM.
For the compound `CC1(C)C[C@@H]2CC[C@H](c3ccccn3)Nc3cccc(n3)S(=O)(=O)NC(=O)c3ccc(C4CCC(F)(F)CC4)nc3N1C2` [Compound 324, (14S,17R)-8-(4,4-Difluorocyclohexyl)-12,12-dimethyl-17-(pyridin-2-yl)-2λ^6-thia-3,9,11,18,23-pentaazatetracyclo[17.3.1.111,14.05,10]tetracosa-1(22),5,7,9,19(23),20-hexaene-2,2,4-trione], the “Corrector Assay A % activity” value is recorded as “+++ (+++ is >60%)” and the EC50 is under 1 µM.
As to `CC1(C)C[C@@H]2CC[C@H](c3ccccn3)Nc3cccc(n3)S(=O)(=O)NC(=O)c3ccc(C4=CCC(F)(F)CC4)nc3N1C2` [Compound 325, (14S,17R)-8-(4,4-Difluorocyclohex-1-en-1-yl)-12,12-dimethyl-17-(pyridin-2-yl)-2λ^6-thia-3,9,11,18,23-pentaazatetracyclo[17.3.1.111,14.05,10]tetracosa-1(22),5,7,9,19(23),20-hexaene-2,2,4-trione], the “Corrector Assay A % activity” value is “+++ (+++ is >60%)” and the EC50 was under 1 µM.
Consider `CC1(C)CCC(c2ccc3c(n2)N2C[C@@H](CC[C@H](c4ccccn4)Nc4cccc(n4)S(=O)(=O)NC3=O)CC2(C)C)CC1` [Compound 326], for which the “Corrector Assay A % activity” value is recorded as “+++ (+++ is >60%)” and the half-maximal effective concentration (EC50) was under 1 µM.
The corresponding values for `CC1(C)CC=C(c2ccc3c(n2)N2C[C@@H](CC[C@H](c4ccccn4)Nc4cccc(n4)S(=O)(=O)NC3=O)CC2(C)C)CC1` [Compound 327] are “+++ (+++ is >60%)” and under 1 µM.
The corresponding values for `CC1(C)C[C@@H]2CC[C@H](c3ccccn3)Nc3cccc(n3)S(=O)(=O)NC(=O)c3ccc(C4CCCCC4)nc3N1C2` [Compound 328] are “+++ (+++ is >60%)” and under 1 µM.
The corresponding values for `CC1(C)C[C@@H]2CC[C@H](c3ccccn3)Nc3cccc(n3)S(=O)(=O)NC(=O)c3ccc(C4=CCCCC4)nc3N1C2` [Compound 329] are “+++ (+++ is >60%)” and under 1 µM.
As for `CC1(C)C[C@@H]2CC[C@H](c3ccccn3)Nc3cccc(n3)S(=O)(=O)NC(=O)c3ccc(C4CCC4)nc3N1C2` [Compound 330, (14S,17R)-8-cyclobutyl-12,12-dimethyl-17-(pyridin-2-yl)-2λ^6-thia-3,9,11,18,23-pentaazatetracyclo[17.3.1.111,14.05,10]tetracosa-1(22),5,7,9,19(23),20-hexaene-2,2,4-trione], the “Corrector Assay A % activity” value is listed as “+++ (+++ is >60%)” and the EC50 was under 1 µM.
On to `CC1(C)C[C@@H]2CC[C@H](c3ccccn3)Nc3cccc(n3)S(=O)(=O)NC(=O)c3ccc(N4CCN(CC5CC5)C4=O)nc3N1C2` [Compound 331], for which the “Corrector Assay A % activity” value was “+++ (+++ is >60%)” and the concentration for a half-maximal effect (EC50) was under 1 µM.
Take `CC(C)N1CCN(c2ccc3c(n2)N2C[C@@H](CC[C@H](c4ccccn4)Nc4cccc(n4)S(=O)(=O)NC3=O)CC2(C)C)C1=O` [Compound 332]: the “Corrector Assay A % activity” value is listed as “+++ (+++ is >60%)” and the EC50 is 1 to 3 µM.
The corresponding values for `CN1CCN(c2ccc3c(n2)N2C[C@@H](CC[C@H](c4ccccn4)Nc4cccc(n4)S(=O)(=O)NC3=O)CC2(C)C)C1=O` [Compound 333] are “+++ (+++ is >60%)” and 1 to 3 µM.
On to `CC1(C)C[C@@H]2CC[C@H](c3ccccn3)Nc3cccc(n3)S(=O)(=O)NC(=O)c3ccc(-n4ccc(OCC5CC5)n4)nc3N1C2` [Compound 334], for which the “Corrector Assay A % activity” value is “+++ (+++ is >60%)” and the concentration for a half-maximal effect (EC50) is under 1 µM.
Take `COc1ccn(-c2ccc3c(n2)N2C[C@@H](CC[C@H](c4ccccn4)Nc4cccc(n4)S(=O)(=O)NC3=O)CC2(C)C)n1` [Compound 335]: the “Corrector Assay A % activity” value is given as “+++ (+++ is >60%)” and the EC50 is under 1 µM.
The corresponding values for `CC(C)c1ccn(-c2ccc3c(n2)N2C[C@@H](CC[C@H](c4ccccn4)Nc4cccc(n4)S(=O)(=O)NC3=O)CC2(C)C)n1` [Compound 336] are “+++ (+++ is >60%)” and under 1 µM.
The corresponding values for `COc1cccc(-c2ccc3c(n2)N2C[C@@H](CC[C@H](c4ccccn4)Nc4cccc(n4)S(=O)(=O)NC3=O)CC2(C)C)n1` [Compound 337] are “+++ (+++ is >60%)” and under 1 µM.
For the compound `COc1cccc(-c2ccc3c(n2)N2C[C@@H](CC[C@@H](c4ccccn4)Nc4cccc(n4)S(=O)(=O)NC3=O)CC2(C)C)n1` [Compound 338], the “Corrector Assay A % activity” value was “+++ (+++ is >60%)” and the EC50 was under 1 µM.
